Measured values published in patent US20170190671A1, “BIS(ARYL)CATECHOL DERIVATIVES AS HERBICIDES” (E I DU PONT DE NEMOURS AND COMPANY, priority 2014, published 2017).

Columns and labels:
Format in all cases: in vivo
[1] = test system: ducksalad (Heteranthera limosa); experiment: Test B flooded paddy; settings: 250 g ai/ha, Flood, 13 to 15 days, scale 0 (no effect) to 100 (complete control)
How it was run: (§1)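 Compound was added to standing water 3 cm above soil, flood maintained, and plants held in a greenhouse before visual scoring against controls at 13 to 15 days.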

rice (Oryza sativa) = experiment: Test B flooded paddy; settings: 250 g ai/ha, Flood, 13 to 15 days, scale 0 (no effect) to 100 (complete control)
How it was run: as §1

[2] = test system: sedge, umbrella (small-flower umbrella sedge, Cyperus difformis); experiment: Test B flooded paddy; settings: 250 g ai/ha, Flood, 13 to 15 days, scale 0 (no effect) to 100 (complete control)
How it was run: as §1

[3] = test system: barnyardgrass (Echinochloa crus-galli); experiment: Test B flooded paddy; settings: 250 g ai/ha, Flood, 13 to 15 days, scale 0 (no effect) to 100 (complete control)
How it was run: as §1

[4] = test system: Italian ryegrass (Lolium multiflorum); experiment: Test C postemergence; settings: scale 0 to 100
How it was run: (§2)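 Visual ratings (0 none to 100 complete control) were made 13 to 15 days after treatment, relative to controls. Test chemicals, formulated in a non-phytotoxic solvent mixture with surfactant, were applied in the greenhouse preemergence to seeded loam-sand soil or postemergence to plants 2 to 18 cm tall.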

wild oat (Avena fatua) = experiment: Test C postemergence; settings: scale 0 to 100
How it was run: as §2

[5] = test system: ragweed (common ragweed, Ambrosia elatior); experiment: Test A preemergence; settings: for Ragweed plant response rating: 0 to 100 scale (0 no effect, 100 complete control)
How it was run: (§3)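 Visual injury scored 0–100 (100 = complete control) against untreated controls about 10 days after treatment in a greenhouse. Test chemicals, formulated with surfactant in non-phytotoxic solvent, were sprayed on soil preemergence or on 2-10 cm, one- to two-leaf plants postemergence.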

kochia (Kochia scoparia) [6] = experiment: Test A preemergence; settings: for Kochia plant response rating: 0 to 100 scale (0 no effect, 100 complete control)
How it was run: as §3

[7] = test system: pigweed (Amaranthus retroflexus); experiment: Test A preemergence; settings: for Pigweed plant response rating: 0 to 100 scale (0 no effect, 100 complete control)
How it was run: as §3

[8] = test system: barnyardgrass (Echinochloa crus-galli); experiment: Test A preemergence
How it was run: as §3

[9] = test system: Italian ryegrass (Lolium multiflorum); experiment: Test A preemergence; settings: for Ryegrass, Italian plant response rating: 0 to 100 scale (0 no effect, 100 complete control)
How it was run: as §3

[10] = test system: giant foxtail (Setaria faberii); experiment: Test A preemergence; settings: for Foxtail, Giant plant response rating: 0 to 100 scale (0 no effect, 100 complete control)
How it was run: as §3

corn (Zea mays) = experiment: Test A postemergence; settings: 0 to 100 scale
How it was run: as §3

[11] = test system: ragweed (common ragweed, Ambrosia elatior); experiment: Test A postemergence; settings: 0 to 100 scale
How it was run: as §3

kochia (Kochia scoparia) [12] = experiment: Test A postemergence; settings: 0 to 100 scale
How it was run: as §3

[13] = test system: pigweed (Amaranthus retroflexus); experiment: Test A postemergence; settings: 0 to 100 scale
How it was run: as §3

[14] = test system: barnyardgrass (Echinochloa crus-galli); experiment: Test A postemergence; settings: 0 to 100 scale
How it was run: as §3

[15] = test system: Italian ryegrass (Lolium multiflorum); experiment: Test A postemergence; settings: 0 to 100 scale
How it was run: as §3

[16] = test system: giant foxtail (Setaria faberii); experiment: Test A postemergence; settings: 0 to 100 scale
How it was run: as §3

[17] = test system: galium (catchweed bedstraw, Galium aparine); experiment: Test A postemergence; settings: 0 to 100 scale
How it was run: as §3

[18] = test system: blackgrass (Alopecurus myosuroides); experiment: Test A postemergence; settings: 0 to 100 scale
How it was run: as §3

[19] = test system: wheat (Triticum aestivum); experiment: Test A postemergence; settings: 0 to 100 scale
How it was run: as §3

## Fc1cccc(Oc2ncc(Cl)cn2)c1Oc1ccc(Cl)nc1 [Compound 20]
[1]; Heteranthera limosa, 336 h, read-out: Plant response rating, Ducksalad
  pest or weed control at 250 g/ha: 95%
Rice (Oryza sativa); Oryza sativa, 336 h, read-out: Plant response rating, Rice
  plant injury at 250 g/ha: 15%
[2]; Cyperus difformis, 336 h, read-out: Plant response rating, Sedge, Umbrella
  pest or weed control at 250 g/ha: 90%
[3]; Echinochloa crus-galli, 336 h, read-out: Plant response rating, Barnyardgrass
  pest or weed control at 250 g/ha: 20%
[4]; Lolium multiflorum, post-emergence, 336 h, Postemergence, 31 g ai/ha, read-out: Plant response rating, Ryegrass, Italian
  pest or weed control at 31 g/ha: 5%
[4]; Lolium multiflorum, post-emergence, 336 h, Postemergence, 62 g ai/ha, read-out: Plant response rating, Ryegrass, Italian
  pest or weed control at 62 g/ha: 5%
[4]; Lolium multiflorum, post-emergence, 336 h, Postemergence, 125 g ai/ha, read-out: Plant response rating, Ryegrass, Italian
  pest or weed control at 125 g/ha: 10%
[4]; Lolium multiflorum, post-emergence, 336 h, Postemergence, 250 g ai/ha, read-out: Plant response rating, Ryegrass, Italian
  pest or weed control at 250 g/ha: 15%
Wild oat (Avena fatua); Avena fatua, post-emergence, Postemergence, 31 g ai/ha, read-out: Plant response rating, Oat, Wild
  pest or weed control at 31 g/ha: 5%
Wild oat (Avena fatua); Avena fatua, post-emergence, Postemergence, 62 g ai/ha, read-out: Plant response rating, Oat, Wild
  pest or weed control at 62 g/ha: 10%
Wild oat (Avena fatua); Avena fatua, post-emergence, Postemergence, 125 g ai/ha, read-out: Plant response rating, Oat, Wild
  pest or weed control at 125 g/ha: 10%
Wild oat (Avena fatua); Avena fatua, post-emergence, Postemergence, 250 g ai/ha, read-out: Plant response rating, Oat, Wild
  pest or weed control at 250 g/ha: 10%
[5]; Ambrosia artemisiifolia, pre-emergence, 240 h, 1000 g ai/ha, 0 to 100 scale, read-out: Plant response rating, Ragweed
  pest or weed control at 1000 g/ha: 40%
Kochia (Kochia scoparia) [6]; Bassia scoparia, pre-emergence, 240 h, 1000 g ai/ha, 0 to 100 scale, read-out: Plant response rating, Kochia
  pest or weed control at 1000 g/ha: 90%
[7]; Amaranthus retroflexus, pre-emergence, 240 h, 1000 g ai/ha, 0 to 100 scale, read-out: Plant response rating, Pigweed
  pest or weed control at 1000 g/ha: 100%
[8]; Echinochloa crus-galli, pre-emergence, 240 h, 1000 g ai/ha, 0 to 100 scale, read-out: Plant response rating, Barnyardgrass
  pest or weed control at 1000 g/ha: 100%
[9]; Lolium multiflorum, pre-emergence, 240 h, 1000 g ai/ha, 0 to 100 scale, read-out: Plant response rating, Ryegrass, Italian
  pest or weed control at 1000 g/ha: 70%
[10]; Setaria faberi, pre-emergence, 240 h, 1000 g ai/ha, 0 to 100 scale, read-out: Plant response rating, Foxtail, Giant
  pest or weed control at 1000 g/ha: 100%
Corn (Zea mays); Zea mays, post-emergence, 240 h, 1000 g ai/ha
  Corn plant response rating (crop injury, 0 = no effect, 100 = complete kill) at 1000 g/ha: 50%
[11]; Ambrosia artemisiifolia, post-emergence, 240 h, 1000 g ai/ha, read-out: Plant response rating, Ragweed
  pest or weed control at 1000 g/ha: 60%
Kochia (Kochia scoparia) [12]; Bassia scoparia, post-emergence, 240 h, 1000 g ai/ha, read-out: Plant response rating, Kochia
  pest or weed control at 1000 g/ha: 90%
[13]; Amaranthus retroflexus, post-emergence, 240 h, 1000 g ai/ha, read-out: Plant response rating, Pigweed
  pest or weed control at 1000 g/ha: 100%
[14]; Echinochloa crus-galli, post-emergence, 240 h, 1000 g ai/ha, 0 no effect, 100 complete control, read-out: Plant response rating, Barnyardgrass
  pest or weed control at 1000 g/ha: 90%
[15]; Lolium multiflorum, post-emergence, 240 h, 1000 g ai/ha, read-out: Plant response rating, Ryegrass, Italian
  pest or weed control at 1000 g/ha: 40%
[16]; Setaria faberi, post-emergence, 240 h, 1000 g ai/ha, read-out: Plant response rating, Foxtail, Giant
  pest or weed control at 1000 g/ha: 90%
[17]; Galium, post-emergence, 240 h, 1000 g ai/ha, read-out: Plant response rating, Galium
  pest or weed control at 1000 g/ha: 90%
[18]; Alopecurus myosuroides, post-emergence, 240 h, 1000 g ai/ha, read-out: Plant response rating, Blackgrass
  pest or weed control at 1000 g/ha: 60%
[19]; Triticum aestivum, post-emergence, 240 h, 1000 g ai/ha, read-out: Plant response rating, Wheat
  plant injury at 1000 g/ha: 50%

## Fc1ccc(F)c(Oc2ncc(C(F)(F)F)cn2)c1Oc1ncc(Cl)cn1 [Compound 25]
[1]
  Plant response rating, Ducksalad: 90
Rice (Oryza sativa)
  Plant response rating, Rice: 20
[2]
  Plant response rating, Sedge, Umbrella: 75
[3]
  Plant response rating, Barnyardgrass: 55
[4]; 8 g ai/ha, postemergence
  Plant response rating, Ryegrass, Italian: 0
[4]; Postemergence, 31 g ai/ha
  Plant response rating, Ryegrass, Italian: 5
[4]; Postemergence, 62 g ai/ha
  Plant response rating, Ryegrass, Italian: 5
Wild oat (Avena fatua); 8 g ai/ha, postemergence
  Plant response rating, Oat, Wild: 5
Wild oat (Avena fatua); Postemergence, 31 g ai/ha
  Plant response rating, Oat, Wild: 10
Wild oat (Avena fatua); Postemergence, 62 g ai/ha
  Plant response rating, Oat, Wild: 15
[5]; 31 g ai/ha
  Ragweed plant response rating: 0
[5]; 125 g ai/ha
  Ragweed plant response rating: 0
Kochia (Kochia scoparia) [6]; 31 g ai/ha
  Kochia plant response rating: 50
Kochia (Kochia scoparia) [6]; 125 g ai/ha
  Kochia plant response rating: 100
[7]; 31 g ai/ha
  Pigweed plant response rating: 90
[7]; 125 g ai/ha
  Pigweed plant response rating: 100
[8]; 31 g ai/ha, 0 to 100 scale (0 no effect, 100 complete control)
  Barnyardgrass plant response rating: 10
[8]; 125 g ai/ha, 0 to 100 scale
  Plant response rating, Barnyardgrass: 70
[9]; 31 g ai/ha
  Ryegrass, Italian plant response rating: 10
[9]; 125 g ai/ha
  Ryegrass, Italian plant response rating: 40
[10]; 31 g ai/ha
  Foxtail, Giant plant response rating: 50
[10]; 125 g ai/ha
  Foxtail, Giant plant response rating: 90
Corn (Zea mays); 31 g ai/ha
  Plant response rating, Corn: 10
Corn (Zea mays); 125 g ai/ha
  Plant response rating, Corn: 30
[11]; 31 g ai/ha
  Plant response rating, Ragweed: 20
[11]; 125 g ai/ha
  Plant response rating, Ragweed: 30
Kochia (Kochia scoparia) [12]; 31 g ai/ha
  Plant response rating, Kochia: 50
Kochia (Kochia scoparia) [12]; 125 g ai/ha
  Plant response rating, Kochia: 70
[13]; 31 g ai/ha
  Plant response rating, Pigweed: 90
[13]; 125 g ai/ha
  Plant response rating, Pigweed: 100
[14]; 31 g ai/ha
  Plant response rating, Barnyardgrass: 10
[14]; 125 g ai/ha
  Plant response rating, Barnyardgrass: 60
[15]; 31 g ai/ha
  Plant response rating, Ryegrass, Italian: 0
[15]; 125 g ai/ha
  Plant response rating, Ryegrass, Italian: 50
[16]; 31 g ai/ha
  Plant response rating, Foxtail, Giant: 30
[16]; 125 g ai/ha
  Plant response rating, Foxtail, Giant: 50
[17]; 31 g ai/ha
  Plant response rating, Galium: 80
[17]; 125 g ai/ha
  Plant response rating, Galium: 90
[18]; 31 g ai/ha
  Plant response rating, Blackgrass: 60
[18]; 125 g ai/ha
  Plant response rating, Blackgrass: 70
[19]; 31 g ai/ha
  Plant response rating, Wheat: 0
[19]; 125 g ai/ha
  Plant response rating, Wheat: 30
